Measured values published in PMC12196043, “In Vivo PK-PD and Drug–Drug Interaction Study of Dorzagliatin for the Management of PI3Kα Inhibitor-Induced Hyperglycemia” (Pharmaceuticals, 2025).
Values after ≈ are worked out from the molar mass of the structure shown. Values joined by “and” are separate entries in the source; they are usually repeats but may differ in a detail not shown here. Identical values can stand only once. Like-named read-outs stand apart in the source and are kept apart here.

Experiments:
[1] = major metabolite BZG791; CYP3A4 to a lesser extent; no reference given; cited from earlier work
[2] = cited from earlier work
[3] = tested on: OVCAR3 xenograft tumor; test: In vivo tumor growth, OVCAR3 subcutaneous xenograft tumor model; design: species or system BALB/c nude mice; settings: n = 6; for T/C (Relative Tumor Growth Rate) / TGI (Tumor Growth Inhibition): based on tumor volume on day 28, vs vehicle; for Tumor Volume (Day 28): day 28 after administration, oral once daily, Dorz 10 mg/kg, WX390 0.2 mg/kg, BYL719 25 mg/kg, vehicle 1582 mm^3
Procedure: (§1) This study, approved by Fudan University Ethics Committee (protocol code: 201904008Z) on 26 April 2019, was conducted in compliance with AAALAC’s International Commission guidelines for laboratory animal evaluation and accreditation. A total of 36 female BALB/c nude mice (6–8 weeks old, weighing 18–20 g) were purchased from Charles River Laboratories (Pinghu, China). The OVCAR3 ovarian cancer cell line (ATCC® HTB-161™) was used to establish human xenografts. OVCAR3 cells (10 × 10^6) suspended in 0.2 mL of Matrigel were subcutaneously inoculated into the dorsal region of each mouse. Tumors were allowed to grow until reaching a volume of ~160 mm^3, typically around 30 days post-inoculation.
(§2) WX390 was prepared in Solvent-1, comprising dimethyl sulfoxide (DMSO): methylcellulose: water at a ratio of 1:1:98 (v/v/v). BYL719 and dorzagliatin were formulated in Solvent-2, consisting of Tween 80: water with 0.5% methylcellulose (MC) solution at a ratio of 0.2:99.8 (v/v). The treatment control was a combination of Solvent-1 and Solvent-2. The test compounds were administered orally as follows: WX390 at 0.2 mg/kg, BYL719 at 25 mg/kg, and dorzagliatin at 10 mg/kg, dissolved in their respective formulations. Due to ethical considerations regarding gavage volume the administration volume across all groups was standardized to 10 μL/g of body weight.
(§3) The experiment involved six treatment groups, each comprising six mice. The groups included: (i) vehicle control, (ii) WX390 (0.2 mg/kg), (iii) BYL719 (25 mg/kg), (iv) dorzagliatin (10 mg/kg), (v) WX390 (0.2 mg/kg) + dorzagliatin (10 mg/kg), and (vi) BYL719 (25 mg/kg) + dorzagliatin (10 mg/kg). All treatments were administered via oral gavage once daily for four weeks. In the combination group of PI3Ki and dorzagliatin, dorzagliatin was administered 30 min prior to PI3Ki.
Tumor dimensions were measured biweekly using a vernier caliper. Tumor volume was calculated using the formula:(1) V=0.5a×b^2 where: • a represents the longest tumor diameter. • b represents the shortest diameter.
The antitumor efficacy of each group was evaluated using TGI or T/C. TGI (%) reflects the rate of tumor growth inhibition and is calculated as follows:(2) TGI%=1−Vend−V0exp/Vend−V0control×100% where: • Vend represents mean tumor volume at the end of treatment in the group. • V0 represents mean tumor volume at the start of treatment in the group. • exp represents the treated groups. • control represents the vehicle control group.
T/C (%) is calculated using the formula:(3) T/C%=TRTV/CRTV×100% where: • TRTV is the Relative Tumor Volume of the treatment group. • CRTV is the Relative Tumor Volume of the negative control group.
The Relative Tumor Volume (RTV) is calculated based on tumor measurement results using the formula:(4) RTV=Vt/V0 where: • V0 is the mean tumor volume at the time of grouping (day 0). • Vt is the mean tumor volume at a given measurement time.
TRTV and CRTV are based on data from the same day.
At the conclusion of the experiment, tumor weights were measured, and the T/C was calculated. Tweight and Cweight represent the tumor weights of the treatment group and the vehicle control group, respectively.

[4] = Plasma pharmacokinetics by LC-MS/MS in OVCAR3 xenograft tumor-bearing nude mice; type: in vivo, BALB/c nude mice; settings: n = 3
Procedure: as §1, §2, §3
Following the 4-week treatment period, all experimental groups were fasted 6 h before the last administration until the end of the experiment. Water was not restricted during the fasting period. Blood samples were collected at 0, 0.5, 1, 2, 4, and 8 h after administration. Each mouse had 3 blood collection points, with 50 μL of plasma collected at each point. Mice in each group were allocated to two cohorts: The first cohort underwent blood collection at 0, 1, and 2 h post-administration, while the second cohort was sampled at 0.5, 4, and 8 h post-administration. Terminal blood collection at the 2-h time point for the first cohort was performed via cardiac puncture following euthanasia, during which tumor tissues were concurrently harvested from this cohort. Blood samples were processed through centrifugation (4 °C, 1500× g for 10 min) for plasma separation. All plasma and tumor samples were immediately snap-frozen in liquid nitrogen and stored at −80 °C for subsequent analysis.
The extraction of WX390, BYL719, and dorzagliatin from plasma samples was performed using protein precipitation. Internal standards (IS) included SBL-D3, BNSL-D5, and PLPL-D8 for WX390, BYL719, and dorzagliatin, respectively. Plasma samples (20 μL) were mixed with 20 μL of zinc sulfate aqueous solution (0.1 mol/L) and 200 µL of a 50% methanol solution containing three internal standards followed by vortexing for 10 min. The samples were centrifuged at 4 °C (15,000× g for 5 min). The supernatant (180 μL) was transferred to a clean Eppendorf tube, and a 10 μL aliquot was injected into the LC-MS/MS system.
Chromatographic separations were performed using an AB SCIEX Jasper HPLC system coupled with an AB SCIEX Triple Quad 4500MD mass spectrometer (AB SCIEX, USA). A Phenomenex Kinetex C18 column (100 × 3 mm, 2.6 μm) was used at 40 °C. The flow rate was maintained at 0.4 mL/min with a total run time of 4 min. […]

[5] = human, in vivo; cited from earlier work
[6] = tested on: CYP3A4; design: method as in ref 31 = [31]; 31. FDA Label of PIQRAY® (Alpelisib) FDA Silver Spring, MD, USA 2019; settings: repeated doses of 300 mg BYL719 with midazolam and other substrates, everolimus; cited from earlier work
[7] = tested on: P-gp; settings: cited from earlier work
[8] = tested on: CYP1A2, 2A6, 2C9, 2C19, 2D6, 2E1, CYP3A4/5; design: method as in ref 32 = [32]; 32. Wang J. Zhao Z. Xu W. Hu X. Jin P. First Marketed Glucokinase Activator for Antidiabetic Therapy: Dorzagliatin Chin. Pharm. J. 2024 59 651 656; settings: in vitro studies; cited from earlier work
[9] = design: method as in PMID 35551294; settings: cited from earlier work
[10] = tested on: fasting plasma glucose (∆FPG); test: PK/PD sigmoid Emax model of dorzagliatin plasma concentration vs ∆FPG; type: in vivo, BALB/c nude mice
Procedure: To further characterize the pharmacokinetics of the compounds, a two-compartment model with first-order absorption was developed using the Phoenix Model module in Phoenix software. The AIC method was applied to identify the most suitable pharmacokinetic model. This model facilitated the comprehensive evaluation of the pharmacokinetic behavior of the drugs under investigation.
To evaluate the effect of the test compounds on blood glucose levels, 10 μL of blood was collected from the tail veins of mice at baseline (time 0) and at predetermined time points (0.5, 1, 2, 4, 6, and 8 h) post-administration. Blood glucose levels were measured using a OneTouch Ultra glucometer. Changes in FPG levels over time were monitored and analyzed. ∆FPG was calculated using Equation (5):(5) ∆FPG=FPGcontrol−FPGexp/FPGcontrol×100% where: • FPGexp represents the FPG levels in the dorzagliatin group, dorzagliatin + WX390 group, or the dorzagliatin + BYL719 group. • FPGcontrol represents the FPG levels in the vehicle control group, WX390 group, or BYL719 group.
A preliminary PK/PD interaction model was developed using plasma concentrations and FPG levels in tumor-bearing mice. The relationship between plasma drug concentrations and FPG reduction was described using the Sigmoid Eₘₐₓ model (Equation (6)):(6) E=E0+Emax×Ce^γ/EC50γ+Ce^γ where: • E represents the mean percent blood glucose reduction. • Cₑ indicates the plasma concentration of the drug that elicits a pharmacodynamic response. • E0 is the baseline drug effect. • Eₘₐₓ represents the maximum potential drug effect. • EC50 is the plasma concentration at which 50% of the maximum drug effect is observed. • γ denotes the Hill coefficient, which reflects the steepness of the concentration-effect curve.

[11] = cited from earlier work; remark: listed apart in the source
[12] = female, BALB/c nude, mouse, plasma, po, 25 mg/kg, PI3Ki measured in combination group with Dorz 10 mg/kg (given 30 min before), WX390 0.2 mg/kg or BYL719 25 mg/kg oral
[13] = female, BALB/c nude, mouse, plasma, po, 25 mg/kg, monotherapy group, plasma, oral gavage once daily for four weeks, Dorz 10 mg/kg, WX390 0.2 mg/kg, BYL719 25 mg/kg
[14] = E = mean percent blood glucose reduction (∆FPG)
[15] = Dorz 10 mg/kg measured in Dorz + BYL719 (25 mg/kg) group, oral
[16] = Dorz 10 mg/kg measured in Dorz + WX390 (0.2 mg/kg) group, oral
[17] = monotherapy group, plasma, oral gavage once daily for four weeks, Dorz 10 mg/kg, WX390 0.2 mg/kg, BYL719 25 mg/kg
[18] = co-administration with moderate CYP3A4 inhibitors such as verapamil, fluconazole, erythromycin

Structure (SMILES): Cc1nc(NC(=O)N2CCC[C@H]2C(N)=O)sc1-c1ccnc(C(C)(C)C(F)(F)F)c1 [BYL719, alpelisib]
- metabolic route (in vitro studies) [1]: primarily metabolized through chemical degradation and enzymatic hydrolysis
- AUC0→24h ([2]; 300 mg/day): 33,224 ng·h/mL
- Cmax ([2]; 300 mg/day): 2480 ng/mL
- apparent volume of distribution [2]: 114 L
- clearance rate [2]: 9.2 L/h
- effect of food intake on pharmacokinetic profile [2]: does not significantly affect
- plasma protein binding rate [2]: 89%
- dose proportionality of exposure ([2]; fed conditions, doses 30 to 450 mg): increases proportionally
- T/C (Relative Tumor Growth Rate) [3]: 52.85%
- TGI (Tumor Growth Inhibition) [3]: 52.46%
- Tumor Volume (Day 28) [3]: 836 mm^3 and 836 ± 71 mm^3
- Tmax ([4]; PI3Ki measured in combination group with Dorz 10 mg/kg (given 30 min before), WX390 0.2 mg/kg or BYL719 25 mg/kg oral): 1.00 h
- AUC(0-t) [4, 12]: 24800 ng·h/mL
- half-life [4, 12]: 6.72 h
- Cmax ([4]; female, BALB/c nude, mouse, plasma, po, 25 mg/kg, PI3Ki measured in combination group with Dorz 10 mg/kg (given 30 min before), WX390 0.2 mg/kg or BYL719 25 mg/kg oral, read-out: Cmax): 4210 ng/mL
- AUC(0-t) [4, 13]: 29000 ng·h/mL
- half-life [4, 13]: 5.33 h
- Cmax ([4]; female, BALB/c nude, mouse, plasma, po, 25 mg/kg, monotherapy group, plasma, oral gavage once daily for four weeks, Dorz 10 mg/kg, WX390 0.2 mg/kg, BYL719 25 mg/kg, read-out: Cmax): 4790 ng/mL
- Tmax ([4]; female, BALB/c nude, mouse, monotherapy group, plasma, oral gavage once daily for four weeks, Dorz 10 mg/kg, WX390 0.2 mg/kg, BYL719 25 mg/kg, read-out: Tmax): 1 h
- rate of hyperglycemia, any grade [5]: 63.7%
- rate of hyperglycemia, grades 3–4 [5]: 36.6%
- treatment discontinuation rate due to hyperglycemia [5]: 6.3%
- CYP3A4 inhibitor status [6]: not a CYP3A4 inhibitor
- P-gp inhibitor status [7]: P-gp inhibitor

Structure (SMILES): CC(C)C[C@@H](C(=O)Nc1ccn(C[C@@H](O)CO)n1)N1CC(Oc2ccccc2Cl)=CC1=O [Dorz, Dorzagliatin]
- inhibition of CYP1A2, 2A6, 2C9, 2C19, 2D6, 2E1, CYP3A4/5 [8]: does not inhibit
- patients with clinically significant hypoglycemic events (blood glucose < 54 mg/dL) ([9]; 24-week double-blind treatment period, 1 of 310 patients): 0.3%
- exposure-adjusted event rate for clinically significant hypoglycemia ([9]; 52-week observation period): 0.006 events per patient-year
- T/C (Relative Tumor Growth Rate) [3]: 90.81%
- TGI (Tumor Growth Inhibition) [3]: 10.19%
- Tumor Volume (Day 28) [3]: 1437 ± 172 mm^3
- E0 (baseline drug effect) in PK/PD equation [10, 14]: 10
- Emax (maximum potential drug effect) in PK/PD equation [10, 14]: 50%
- EC50 (∆FPG as indicator) ([10]; dorzagliatin plasma concentration giving 50% of maximum effect, per treatment group): 0.74 µg/mL (≈ 1.6 µM)
- Hill coefficient (γ) ([10]; ∆FPG, per treatment group): 0.80
- AUC0→t [4, 15]: 3953.58 ng·h/mL
- Cmax [4, 15]: 2013.33 ng/mL
- Tmax [4, 15]: 1.00 h
- t1/2 [4, 15]: 1.86 h
- AUC0→t [4, 16]: 4657.23 ng·h/mL
- Cmax [4, 16]: 1776.67 ng/mL
- Tmax [4, 16]: 0.50 h
- t1/2 [4, 16]: 2.93 h
- AUC0→t [4, 17]: 3287.90 ng·h/mL
- Cmax [4, 17]: 1331.00 ng/mL
- Tmax [4, 17]: 0.50 h
- t1/2 [4, 17]: 2.15 h
- time to steady-state plasma pharmacokinetics ([11]; T2DM patients, twice-daily oral administration): ≤ 4 days
- AUCtau ([11]; after oral administration): 5570 ng·h/mL
- Cmax ([11]; after oral administration): 1090 ng/mL
- median Tmax ([11]; after oral administration): 1.31 h
- Metabolism [11]: primarily occurs in the liver via cytochrome P450 enzyme 3A4 (CYP3A4)
- fold increase in AUC0→t of dorzagliatin [11, 18]: 2.4 fold
- fold increase in Cmax of dorzagliatin [11, 18]: 1.2 fold
- mean apparent volume of distribution ([11]; single 50 mg oral dose, healthy subjects): 115 L
- P-gp substrate status [7]: substrate of P-gp
